Twelve molecules from patent US20140243322A1, “BIVALENT BROMODOMAIN LIGANDS, AND METHODS OF USING SAME” (Coferon, Inc., priority 2011, published 2014) can be followed below.

By pEC50 is commonly meant the EC50 on a negative log10 scale, so that one unit is a factor of ten. In general, GI50 refers to the concentration at which growth is held to half of that of the control.

Assay [1] has as its target N-terminal His 6-tagged BRD2 tandem protein. The assay is described as follows: Surface Plasmon Resonance (SPR) off-rate assay. Conditions: immobilized BRD2 tandem protein; saturating concentrations injected 5 minutes, buffer 20 minutes. It is filed as binding. As to the method: Surface Plasmon Resonance (SPR) Assay.
Off rates were determined using surface plasmon resonance measurements on a Bio-Rad ProteOn XPR 36 instrument. N-terminal His 6-tagged BRD2 tandem protein was immobilized by capturing on a ProteOn HTG sensor chip and then cross coupled to the surface using standard amine reactive chemistry. Selected bivalent inhibitors were injected on to the chip surface at saturating concentrations for 5 minutes followed by buffer for 20 minutes. The resulting sensorgrams were analyzed using the ProteOn XPR software to determine off-rates. Off rates for selected bivalent inhibitors were >100× slower when binding to the BRD2 tandem protein compared to the monovalent pharmacophores or compared to the bivalents binding to monobromodomain containing protein constructs.

A further assay deals with Myc mRNA. The assay is described as follows: Inhibition of Myc expression (Myc mRNA) in MV4-11 cells. It is filed as cell-based. Conditions: Homo sapiens, 4 hours of treatment, read-out: EC50 range, Myc mRNA normalized to GAPDH mRNA. An excerpt:
Inhibition of Myc Expression.

The subject of another assay is MV4-11 cells. The assay is described as follows: Inhibition of MV4-11 cell proliferation (Cell-Titer Glo). It is filed as cell-based. The settings on record: Homo sapiens, 72 hours of growth, read-out: GI50 range. As to the method: Inhibition of MV4-11 Cell Proliferation.
MV4-11 cells (5000 cells in 50 μl volumes) in growth medium containing 10% FBS and 1% Pen/Strep were plated and grown overnight in 96 well plates and treated the next day with 3-fold dilutions of test compounds or with DMSO vehicle. After 72 hours of growth, 30 ul of Cell-Titer Glo reagent (Promega) was added to the wells and the plates incubated for 30 minutes. Luminescence was measured on a Spectramax M5 plate reader and GI50 values were calculated for each test compound.

pEC50: −log10 of the molar value.

As to `CCNC(=O)C[C@@H]1N=C(c2ccc(Cl)cc2)c2cc(OCCCNC(=O)C[C@@H]3N=C(c4ccc(Cl)cc4)c4cc(OC)ccc4-n4c(C)nnc43)ccc2-n2c(C)nnc21` [BRD-B-02, N-(3-(((4S)-6-(4-chlorophenyl)-4-(2-(ethylamino)-2-oxoethyl)-1-methyl-4H-benzo[f][1,2,4]triazolo[4,3-a][1,4]diazepin-8-yl)oxy)propyl)-2-((4S)-6-(4-chlorophenyl)-8-methoxy-1-methyl-4H-benzo[f][1,2,4]triazolo[4,3-a][1,4]diazepin-4-yl)acetamide], the “kd (off rate)” value in assay [1] was determined as 0.00011 s⁻¹. For the same molecule, the pEC50 in the assay with Myc mRNA was 4.52 to 7.00. For the same molecule, the GI50 in the assay with MV4-11 cells is 0.1 to 30 nM.

On to `CCNC(=O)C[C@@H]1N=C(c2ccc(Cl)cc2)c2cc(OCCOCCNC(=O)C[C@@H]3N=C(c4ccc(Cl)cc4)c4cc(OC)ccc4-n4c(C)nnc43)ccc2-n2c(C)nnc21` [BRD-B-03, N-(2-(2-(((4S)-6-(4-chlorophenyl)-4-(2-(ethylamino)-2-oxoethyl)-1-methyl-4H-benzo[f][1,2,4]triazolo[4,3-a][1,4]diazepin-8-yl)oxy)ethoxy)ethyl)-2-((4S)-6-(4-chlorophenyl)-8-methoxy-1-methyl-4H-benzo[f][1,2,4]triazolo[4,3-a][1,4]diazepin-4-yl)acetamide], for which, in assay [1], the “kd (off rate)” value was determined as 0.00011 s⁻¹. For the same molecule, the GI50 in the assay with MV4-11 cells lay in the range of 30 to 100 nM.

In the case of `CCNC(=O)C[C@@H]1N=C(c2ccc(Cl)cc2)c2cc(OCCOCCOCCOCCOCCOCCNC(=O)C[C@@H]3N=C(c4ccc(Cl)cc4)c4cc(OC)ccc4-n4c(C)nnc43)ccc2-n2c(C)nnc21` [BRD-B-13, N-(17-(((4S)-6-(4-chlorophenyl)-4-(2-(ethylamino)-2-oxoethyl)-1-methyl-4H-benzo[f][1,2,4]triazolo[4,3-a][1,4]diazepin-8-yl)oxy)-3,6,9,12,15-pentaoxaheptadecyl)-2-((4S)-6-(4-chlorophenyl)-8-methoxy-1-methyl-4H-benzo[f][1,2,4]triazolo[4,3-a][1,4]diazepin-4-yl)acetamide], the pEC50 in the assay with Myc mRNA is 4.52 to 7.00. The 50% growth inhibitory concentration (GI50) in the assay with MV4-11 cells lay within 0.1 to 30 nM.

`CCNC(=O)C[C@@H]1N=C(c2ccc(Cl)cc2)c2cc(OCCOCCOCCOCCOCCOCCOCCNC(=O)C[C@@H]3N=C(c4ccc(Cl)cc4)c4cc(OC)ccc4-n4c(C)nnc43)ccc2-n2c(C)nnc21` [BRD-B-14, N-(20-(((4S)-6-(4-chlorophenyl)-4-(2-(ethylamino)-2-oxoethyl)-1-methyl-4H-benzo[f][1,2,4]triazolo[4,3-a][1,4]diazepin-8-yl)oxy)-3,6,9,12,15,18-hexaoxaicosyl)-2-((4S)-6-(4-chlorophenyl)-8-methoxy-1-methyl-4H-benzo[f][1,2,4]triazolo[4,3-a][1,4]diazepin-4-yl)acetamide]: the “kd (off rate)” value in assay [1] turned out to be 7.5e-05 s⁻¹. For the same molecule, the pEC50 in the assay with Myc mRNA is 7.52 to 10.00. Further, the GI50 in the assay on MV4-11 cells is 0.1 to 30 nM.

`CCNC(=O)C[C@@H]1N=C(c2ccc(Cl)cc2)c2cc(OCCOCCOCCOCCOCCOCCOCCOCCNC(=O)C[C@@H]3N=C(c4ccc(Cl)cc4)c4cc(OC)ccc4-n4c(C)nnc43)ccc2-n2c(C)nnc21` [BRD-B-15, N-(23-(((4S)-6-(4-chlorophenyl)-4-(2-(ethylamino)-2-oxoethyl)-1-methyl-4H-benzo[f][1,2,4]triazolo[4,3-a][1,4]diazepin-8-yl)oxy)-3,6,9,12,15,18,21-heptaoxatricosyl)-2-((4S)-6-(4-chlorophenyl)-8-methoxy-1-methyl-4H-benzo[f][1,2,4]triazolo[4,3-a][1,4]diazepin-4-yl)acetamide]: the “kd (off rate)” value in assay [1] turned out to be 8.3e-05 s⁻¹. The pEC50 in the assay on Myc mRNA is 4.52 to 7.00. Moreover, the 50% growth inhibitory concentration (GI50) in the assay with MV4-11 cells was in the range of 0.1 to 30 nM.

Turning to `COc1ccc2c(c1)C(c1ccc(Cl)cc1)=N[C@@H](CC(=O)NCCOCCOCCOCCOCCNC(=O)C[C@@H]1N=C(c3ccc(Cl)cc3)c3cc(OC)ccc3-n3c(C)nnc31)c1nnc(C)n1-2` [BRD-B-16, (S)—N,N′-(3,6,9,12-tetraoxatetradecane-1,14-diyl)bis(2-((S)-6-(4-chlorophenyl)-8-methoxy-1-methyl-4H-benzo[f][1,2,4]triazolo[4,3-a][1,4]diazepin-4-yl)acetamide)], the negative logarithm of the EC50 (pEC50) with Myc mRNA was 7.00 to 7.52. Besides, in the assay with MV4-11 cells, the GI50 is 30 to 100 nM.

Take `COc1ccc2c(c1)C(c1ccc(Cl)cc1)=N[C@@H](CC(=O)NCCOCCOCCOCCOCCOCCNC(=O)C[C@@H]1N=C(c3ccc(Cl)cc3)c3cc(OC)ccc3-n3c(C)nnc31)c1nnc(C)n1-2` [BRD-B-17, (S)—N,N′-(3,6,9,12,15-pentaoxaheptadecane-1,17-diyl)bis(2-((S)-6-(4-chlorophenyl)-8-methoxy-1-methyl-4H-benzo[f][1,2,4]triazolo[4,3-a][1,4]diazepin-4-yl)acetamide)]: in the assay on Myc mRNA, the pEC50 is 4.52 to 7.00. For the same molecule, in the assay on MV4-11 cells, the GI50 was 30 to 100 nM.

Turning to `COc1ccc2c(c1)C(c1ccc(Cl)cc1)=N[C@@H](CC(=O)NCCOCCOCCOCCOCCOCCOCCNC(=O)C[C@@H]1N=C(c3ccc(Cl)cc3)c3cc(OC)ccc3-n3c(C)nnc31)c1nnc(C)n1-2` [BRD-B-18, (S)—N,N′-(3,6,9,12,15,18-hexaoxaicosane-1,20-diyl)bis(2-((S)-6-(4-chlorophenyl)-8-methoxy-1-methyl-4H-benzo[f][1,2,4]triazolo[4,3-a][1,4]diazepin-4-yl)acetamide)], the pEC50 in the assay with Myc mRNA is 7.00 to 7.52. In addition, the GI50 in the assay with MV4-11 cells is 0.1 to 30 nM.

As for `COc1ccc2c(c1)C(c1ccc(Cl)cc1)=N[C@@H](CC(=O)NCCOCCOCCOCCOCCOCCOCCOCCNC(=O)C[C@@H]1N=C(c3ccc(Cl)cc3)c3cc(OC)ccc3-n3c(C)nnc31)c1nnc(C)n1-2` [BRD-B-19, (S)—N,N′-(3,6,9,12,15,18,21-heptaoxatricosane-1,23-diyl)bis(2-((S)-6-(4-chlorophenyl)-8-methoxy-1-methyl-4H-benzo[f][1,2,4]triazolo[4,3-a][1,4]diazepin-4-yl)acetamide)], the pEC50 in the assay with Myc mRNA is 4.52 to 7.00. Also, the GI50 in the assay with MV4-11 cells was in the range of 0.1 to 30 nM.

Consider `CCNC(=O)C[C@@H]1N=C(c2ccc(Cl)cc2)c2cc(OCCOCCOCCOCCOCCOCCOCCOCCOCCNC(=O)C[C@@H]3N=C(c4ccc(Cl)cc4)c4cc(OC)ccc4-n4c(C)nnc43)ccc2-n2c(C)nnc21` [BRD-B-20, N-(26-(((4S)-6-(4-chlorophenyl)-4-(2-(ethylamino)-2-oxoethyl)-1-methyl-4H-benzo[f][1,2,4]triazolo[4,3-a][1,4]diazepin-8-yl)oxy)-3,6,9,12,15,18,21,24-octaoxahexacosyl)-2-((4S)-6-(4-chlorophenyl)-8-methoxy-1-methyl-4H-benzo[f][1,2,4]triazolo[4,3-a][1,4]diazepin-4-yl)acetamide], for which the negative-log EC50 (pEC50) in the assay with Myc mRNA was 7.52 to 10.00. The GI50 with MV4-11 cells was in the range of 0.1 to 30 nM.

With `COc1ccc2c(c1)C(c1ccc(Cl)cc1)=N[C@@H](CC(=O)NCCOCCOCCOCCOCCOCCOCCOCCOCCNC(=O)C[C@@H]1N=C(c3ccc(Cl)cc3)c3cc(OC)ccc3-n3c(C)nnc31)c1nnc(C)n1-2` [BRD-B-22, (S)—N,N′-(3,6,9,12,15,18,21,24-octaoxahexacosane-1,26-diyl)bis(2-((4S)-6-(4-chlorophenyl)-8-methoxy-1-methyl-4H-benzo[1,2,4]triazolo[4,3-a][1,4]diazepin-4-yl)acetamide)], in the assay with Myc mRNA, the pEC50 was 7.00 to 7.52. In addition, the GI50 in the assay with MV4-11 cells lay in the range of 0.1 to 30 nM.

Consider `COc1ccc2c(c1)C(c1ccc(Cl)cc1)=N[C@@H](CC(=O)NCCOCCOCCOCCOCCOCCOCCOCCOCCOCCNC(=O)C[C@@H]1N=C(c3ccc(Cl)cc3)c3cc(OC)ccc3-n3c(C)nnc31)c1nnc(C)n1-2` [BRD-B-23, (S)—N,N′-(3,6,9,12,15,18,21,24,27-nonaoxanonacosane-1,29-diyl)bis(2-((4S)-6-(4-chlorophenyl)-8-methoxy-1-methyl-4H-benzo[f][1,2,4]triazolo[4,3-a][1,4]diazepin-4-yl)acetamide)], for which, in the assay on Myc mRNA, the pEC50 was 7.00 to 7.52. In addition, in the assay on MV4-11 cells, the GI50 fell in the range of 0.1 to 30 nM.
